Test results taken from patent US20260295053A1, “COMPOUNDS FOR DEGRADATION AND INHIBITION OF KRAS (G12D) PROTEIN” (Shenzhen Ionova Life Science Co., Ltd., priority 2023, published 2026).

Experiments:
[1] = system: AsPC-1 cells; assay: AsPC-1 cell proliferation assay (CellTiter Glo); format: cell-based; conditions: 6 days
Procedure, shortened: (§1)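 Degradation: 22,000 cells/well grown to ~90% confluency, 24 h compound, fixed/permeabilised, anti-KRAS G12D + β-actin antibodies, near-IR fluorescence, DC50. Proliferation: 3,500 cells/well overnight, 6 d compound, CellTiter Glo luminescence, IC50. Dosing […]–1.5 nM final, 1:3 steps.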

[2] = biological target: T1, KRAS (G12D) (Homo sapiens, UniProt P01116, G12D); assay: KRAS (G12D) cellular degradation assay in AsPC-1 cells; format: cell-based; conditions: 24 hours, antibody fluorescence (Odyssey CLX), DC50 half-maximal degradation concentration
T1 construct: in-cell western with KRAS G12D antibody after 24 h
Procedure, shortened: as §1

T1 sequence (P01116 1-188 isoform P01116-2 G12D): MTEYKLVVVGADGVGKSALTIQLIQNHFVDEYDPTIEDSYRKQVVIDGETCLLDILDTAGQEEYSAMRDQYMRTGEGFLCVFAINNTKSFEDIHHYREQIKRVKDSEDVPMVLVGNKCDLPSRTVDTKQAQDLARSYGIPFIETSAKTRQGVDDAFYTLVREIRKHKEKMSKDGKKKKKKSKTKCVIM

| Compound | IC50 ([1]; Homo sapiens, ASPC1, 144 h) | DC50 [2] | IC50 [1] |
| --- | --- | --- | --- |
| CO[C@H]1C[C@H](Oc2nc(N(C)[C@H]3CCNC3)c3cc(C4CC4)c(-c4c(C)c(F)cc5[nH]ncc45)c(OCc4ccc(-c5cn([C@H](C(=O)N6C[C@H](O)C[C@H]6C(=O)N[C@H](c6ccc(-c7scnc7C)cc6)[C@H](C)O)C(C)C)nn5)cc4)c3n2)C1 [Example 171, (2S,4R)-1-((2S)-2-(4-(4-(((6-cyclopropyl-7-(6-fluoro-5-methyl-1H-indazol-4-yl)-2-((1r,3S)-3-methoxycyclobutoxy)-4-(methyl((S)-pyrrolidin-3-yl)amino)quinazolin-8-yl)oxy)methyl)phenyl)-1H-1,2,3-triazol-1-yl)-3-methylbutanoyl)-4-hydroxy-N-((1R,2S)-2-hydroxy-1-(4-(4-methylthiazol-5-yl)phenyl)propyl)pyrrolidine-2-carboxamide] | < 10 nM | < 10 nM |  |
| CO[C@@H](C)COc1nc(N2C[C@@H]3C[C@H]2CN3)c2cc(C3CC3)c(-c3c(C)c(F)cc4[nH]ncc34)c(OCc3ccc(-c4cn([C@H](C(=O)N5C[C@H](O)C[C@H]5C(=O)N[C@H](C#Cc5ccc6nc(N)sc6c5)CO)C(C)C)nn4)cc3)c2n1 [Example 111, (2S,4R)-1-((2S)-2-(4-(4-(((4-((1S,4S)-2,5-diazabicyclo[2.2.1]heptan-2-yl)-6-cyclopropyl-7-(6-fluoro-5-methyl-1H-indazol-4-yl)-2-((S)-2-methoxypropoxy)quinazolin-8-yl)oxy)methyl)phenyl)-1H-1,2,3-triazol-1-yl)-3-methylbutanoyl)-N—((R)-4-(2-aminobenzo[d]thiazol-6-yl)-1-hydroxybut-3-yn-2-yl)-4-hydroxypyrrolidine-2-carboxamide] | < 10 nM | < 10 nM |  |
| CCn1nccc1-c1ccc([C@@H](NC(=O)[C@@H]2C[C@@H](O)CN2C(=O)[C@H](C(C)C)n2cc(-c3ccc(COc4c(-c5c(C)c(F)cc6[nH]ncc56)c(C5CCC5)cc5c(N6C[C@@H]7C[C@H]6CN7)nc(OC[C@H](C)OC)nc45)cc3)nn2)[C@@H](C)O)cc1 [Example 128, (2S,4R)-1-((2S)-2-(4-(4-(((4-((1S,4S)-2,5-diazabicyclo[2.2.1]heptan-2-yl)-6-cyclobutyl-7-(6-fluoro-5-methyl-1H-indazol-4-yl)-2-((S)-2-methoxypropoxy)quinazolin-8-yl)oxy)methyl)phenyl)-1H-1,2,3-triazol-1-yl)-3-methylbutanoyl)-N-((1R,2R)-1-(4-(1-ethyl-1H-pyrazol-5-yl)phenyl)-2-hydroxypropyl)-4-hydroxypyrrolidine-2-carboxamide] | < 10 nM | 10 to 100 nM |  |
| CCn1nccc1-c1ccc([C@H](CO)NC(=O)[C@@H]2C[C@@H](O)CN2C(=O)[C@H](C(C)C)n2cc(-c3ccc(COc4c(-c5c(C)c(F)cc6[nH]ncc56)c(C5CC5)cc5c(N6C[C@@H]7C[C@H]6CN7)nc(OC6CC7COCC7C6)nc45)cc3)nn2)cc1 (stereo partly drawn) [Example 104, (2S,4R)-1-((2S)-2-(4-(4-(((4-((1S,4S)-2,5-diazabicyclo[2.2.1]heptan-2-yl)-6-cyclopropyl-7-(6-fluoro-5-methyl-1H-indazol-4-yl)-2-((hexahydro-1H-cyclopenta[c]furan-5-yl)oxy)quinazolin-8-yl)oxy)methyl)phenyl)-1H-1,2,3-triazol-1-yl)-3-methylbutanoyl)-N—((R)-1-(4-(1-ethyl-1H-pyrazol-5-yl)phenyl)-2-hydroxyethyl)-4-hydroxypyrrolidine-2-carboxamide] | < 10 nM | < 10 nM |  |
| CCn1nccc1-c1ccc([C@@H](NC(=O)[C@@H]2C[C@@H](O)CN2C(=O)[C@H](C(C)C)n2cc(-c3ccc(COc4c(-c5c(C)c(F)cc6[nH]ncc56)c(C5CC5)cc5c(N6C[C@@H]7C[C@H]6CN7)nc(O[C@H]6C[C@H](OC)C6)nc45)cc3)nn2)[C@H](C)O)c(F)c1 [Example 198, (2S,4R)-1-((2S)-2-(4-(4-(((4-((1S,4S)-2,5-diazabicyclo[2.2.1]heptan-2-yl)-6-cyclopropyl-7-(6-fluoro-5-methyl-1H-indazol-4-yl)-2-((1r,3S)-3-methoxycyclobutoxy)quinazolin-8-yl)oxy)methyl)phenyl)-1H-1,2,3-triazol-1-yl)-3-methylbutanoyl)-N-((1R,2S)-1-(4-(1-ethyl-1H-pyrazol-5-yl)-2-fluorophenyl)-2-hydroxypropyl)-4-hydroxypyrrolidine-2-carboxamide] | < 10 nM | < 10 nM |  |

The next lines start with the values.

| IC50 ([1]; Homo sapiens, ASPC1, 144 h) | DC50 [2] | IC50 [1] | Compound |
| --- | --- | --- | --- |
| < 10 nM | < 10 nM |  | CCn1nccc1-c1ccc([C@@H](NC(=O)[C@@H]2C[C@@H](O)CN2C(=O)[C@H](C(C)C)n2cc(-c3ccc(COc4c(-c5c(C)c(F)cc6[nH]ncc56)c(C5CC5)cc5c(N(C)[C@@H]6CCNC6)nc(OC[C@H](C)OC)nc45)cc3)nn2)[C@H](C)O)c2c1CC2 [Example 186, (2S,4R)-1-((2S)-2-(4-(4-(((6-cyclopropyl-7-(6-fluoro-5-methyl-1H-indazol-4-yl)-2-((S)-2-methoxypropoxy)-4-(methyl((R)-pyrrolidin-3-yl)amino)quinazolin-8-yl)oxy)methyl)phenyl)-1H-1,2,3-triazol-1-yl)-3-methylbutanoyl)-N-((1R,2S)-1-(5-(1-ethyl-1H-pyrazol-5-yl)bicyclo[4.2.0]octa-1(6),2,4-trien-2-yl)-2-hydroxypropyl)-4-hydroxypyrrolidine-2-carboxamide] |
| < 10 nM | < 10 nM |  | CCn1nccc1-c1ccc([C@@H](NC(=O)[C@@H]2C[C@@H](O)CN2C(=O)[C@H](C(C)C)n2cc(-c3ccc(COc4c(-c5c(C)c(F)cc6[nH]ncc56)c(C5CC5)cc5c(N6C[C@@H]7C[C@H]6CN7)nc(OC6CC7(CCOC7)C6)nc45)cc3)nn2)[C@H](C)O)cc1 (stereo partly drawn) [Example 114, (2S,4R)-1-((2S)-2-(4-(4-(((2-((6-oxaspiro[3.4]octan-2-yl)oxy)-4-((1S,4S)-2,5-diazabicyclo[2.2.1]heptan-2-yl)-6-cyclopropyl-7-(6-fluoro-5-methyl-1H-indazol-4-yl)quinazolin-8-yl)oxy)methyl)phenyl)-1H-1,2,3-triazol-1-yl)-3-methylbutanoyl)-N-((1R,2S)-1-(4-(1-ethyl-1H-pyrazol-5-yl)phenyl)-2-hydroxypropyl)-4-hydroxypyrrolidine-2-carboxamide] |
| < 10 nM | < 10 nM |  | CCn1nccc1-c1ccc([C@@H](NC(=O)[C@@H]2C[C@@H](O)CN2C(=O)[C@H](C(C)C)n2cc(-c3ccc(COc4c(-c5c(C)c(F)cc6n[nH]cc56)c(C5CC5)cc5c(N6C[C@@H]7C[C@H]6CN7)nc(OC6CCOCC6)nc45)cc3)nn2)[C@H](C)O)c2c1CC2 [Example 84, (2S,4R)-1-((2S)-2-(4-(4-(((4-((1S,4S)-2,5-diazabicyclo[2.2.1]heptan-2-yl)-6-cyclopropyl-7-(6-fluoro-5-methyl-1H-indazol-4-yl)-2-((tetrahydro-2H-pyran-4-yl)oxy)quinazolin-8-yl)oxy)methyl)phenyl)-1H-1,2,3-triazol-1-yl)-3-methylbutanoyl)-N-((1R,2S)-1-(5-(1-ethyl-1H-pyrazol-5-yl)bicyclo[4.2.0]octa-1(6),2,4-trien-2-yl)-2-hydroxypropyl)-4-hydroxypyrrolidine-2-carboxamide] |
| < 10 nM | < 10 nM |  | Cc1ncsc1-c1ccc([C@H](CO)NC(=O)[C@@H]2C[C@@H](O)CN2C(=O)[C@H](C(C)C)n2cc(-c3ccc(COc4c(-c5c(C)c(F)cc6[nH]ncc56)c(C5CC5)cc5c(N6C[C@@H]7C[C@H]6CN7)nc(OCC6(C(F)F)CC6)nc45)cc3)nn2)cc1 [Example 79, (2S,4R)-1-((2S)-2-(4-(4-(((4-((1S,4S)-2,5-diazabicyclo[2.2.1]heptan-2-yl)-6-cyclopropyl-2-((1-(difluoromethyl)cyclopropyl)methoxy)-7-(6-fluoro-5-methyl-1H-indazol-4-yl)quinazolin-8-yl)oxy)methyl)phenyl)-1H-1,2,3-triazol-1-yl)-3-methylbutanoyl)-4-hydroxy-N—((R)-2-hydroxy-1-(4-(4-methylthiazol-5-yl)phenyl)ethyl)pyrrolidine-2-carboxamide] |
| < 10 nM | < 10 nM |  | CCn1nccc1C#CC(CO)NC(=O)[C@@H]1C[C@@H](O)CN1C(=O)[C@H](C(C)C)n1cc(-c2ccc(COc3c(-c4c(C)c(F)cc5[nH]ncc45)c(C4CC4)cc4c(N5C[C@@H]6C[C@H]5CN6)nc(OC[C@H](C)OC)nc34)cc2)nn1 (stereo in doubt) [Example 34, (2S,4R)-1-((2S)-2-(4-(4-(((4-((1S,4S)-2,5-diazabicyclo[2.2.1]heptan-2-yl)-6-cyclopropyl-7-(6-fluoro-5-methyl-1H-indazol-4-yl)-2-((S)-2-methoxypropoxy)quinazolin-8-yl)oxy)methyl)phenyl)-1H-1,2,3-triazol-1-yl)-3-methylbutanoyl)-N—((R)-4-(1-ethyl-1H-pyrazol-5-yl)-1-hydroxybut-3-yn-2-yl)-4-hydroxypyrrolidine-2-carboxamide] |
| < 10 nM | < 10 nM |  | CCn1nccc1-c1ccc([C@@H](NC(=O)[C@@H]2C[C@@H](O)CN2C(=O)[C@H](C(C)C)n2cc(-c3ccc(COc4c(-c5c(C)c(F)cc6[nH]ncc56)c(C5CC5)cc5c(N6C[C@@H]7C[C@H]6CN7)nc(OCC(OC)C(F)F)nc45)cc3)nn2)[C@H](C)O)cc1 (stereo partly drawn) [Example 119, (2S,4R)-1-((2S)-2-(4-(4-(((4-((1S,4S)-2,5-diazabicyclo[2.2.1]heptan-2-yl)-6-cyclopropyl-2-(3,3-difluoro-2-methoxypropoxy)-7-(6-fluoro-5-methyl-1H-indazol-4-yl)quinazolin-8-yl)oxy)methyl)phenyl)-1H-1,2,3-triazol-1-yl)-3-methylbutanoyl)-N-((1R,2S)-1-(4-(1-ethyl-1H-pyrazol-5-yl)phenyl)-2-hydroxypropyl)-4-hydroxypyrrolidine-2-carboxamide] |
|  | < 10 nM | < 10 nM | CCn1nccc1-c1ccc([C@H](CO)NC(=O)[C@@H]2C[C@@H](O)CN2C(=O)[C@H](C(C)C)n2cc(-c3ccc(COc4c(-c5c(C)c(F)cc6[nH]ncc56)c(C5CC5)cc5c(N6C[C@H]7C[C@@H]6CN7)nc(OC[C@H](C)OC)nc45)cc3)nn2)cc1 (single isomer, unassigned) [Example 1A] |
